Measured values reported in patent US20220002806A1, “BIOMARKER” (ERBER AKTIENGESELLSCHAFT, priority 2018, published 2022).

Columns and labels:
miR-7 = settings: ovariectomized pigs; intraperitoneal injection of 112.5 mg ZEN per day; He et al. 2018; cited from earlier work
miRNAs in uterus tissue = assay: Small RNA sequencing (RNA-Seq) of miRNAs in uterus tissue of ZEN-exposed piglets; type: in vivo, pig (Sus scrofa); settings: for fold change of ssc-miRNA-542-3p in uterus compared to the control group: highest fold change of the group
Excerpt: Weaned female piglets (sow: Landrace×Large White, boar: Pietrain; 30+/−2 days old) were obtained from a local producer and individually tagged. Piglets were housed in slatted floor pens under controlled environmental conditions. After an acclimatization period of seven days, twenty-four female piglets were selected based on both body weight and vulva size, and allocated to one of four groups (6 animals/group). Piglets received either blank feed (negative control; Ctrl) or feed contaminated with ZEN in three increasing concentrations (ZEN low: 0.17 mg/kg diet; ZEN medium: 1.5 mg/kg diet; ZEN high: 4.6 mg/kg diet). During the 28-day experimental period, each treatment group was given free access to water and the assigned diet. The pigs were observed daily and weighed weekly.
After 28 days of dietary exposure to the experimental diets, pigs were anesthetized by intramuscular injection of ketamine (0.1 mL/kg body weight (b.w.) Narketan®, Vétoquinol GmbH, Ravensburg, Germany) and azaperone (0.03 mL/kg b.w.; Stresnil®, Janssen-Cilag, Neuss, Germany). Subsequently, animals were euthanized by intracardial injection of T61® (Intervet, UnterschleiBheim, Germany; 0.1 ml/kg b.w.). The whole reproductive tract was collected, weighed and examined for any clinical signs. Small pieces of the corpus uteri and the mid-jejunum were dissected, placed into 1 mL of RNAlater, and stored overnight at 4° C. The next day, all the tissue samples were transferred to −80° C. for long-term storage, and until processed for transcriptomics analysis.
miRNA Extraction and Library Preparation: A total of 18 animals was used for investigations on the miRNA profile in the tissues: 6 from Ctrl, 4 from ZEN low, 4 from ZEN medium, and 4 from ZEN high. About 30 mg of tissue from uterus or jejunum was disrupted via a bead-beating step, and the total RNA, including RNA from approximately 18 nucleotides upwards, was extracted and purified with the miRNeasy Mini Kit (Qiagen, Hilden, Germany), following the manufacturer's instructions. The concentration of RNA was first estimated on the Nanodrop (Termo Scientifc NanoDrop 2000, USA), and again with the Agilent 2100 Bioanalyzer (Agilent Technologies, Germany) during the measurement of the RIN for determining the RNA quality. In total 1 μg of total RNA was used for construction of small RNA sequencing libraries using the NEBNext Multiplex SmallRNA Library preparation set for Illumina (New England Biolabs). Adapter-ligated total RNA was reverse transcribed into cDNA, which was used as template for PCR amplification (15 cycles) using Illumina's SR Primer and Index Primers 1-18. Barcoded DNA libraries were purified using the QIAQuick PCR purification protocol (Qiagen, Hilden, Germany) and quantified using the DNA 1000 high sensitivity chip (Agilent Technologies, Germany). Purified samples were pooled at equimolar (50 nM) concentration. Size selection was performed using gel purification to select for insert sizes between 18 and 50 nucleotides. The final multiplexed (n=18) libraries were sequenced on a NextSeq 500 sequencing instrument according to the manufacturer instructions. Raw data was de-multiplexed and FASTQ files for each sample was generated using the bcl2fastq software (Illumina inc.). FASTQ data was checked using the FastQC online tool (http://www.bioinformatics.babraham.ac.uk/projects/fastqc/).
RNA sequencing (RNA-Seq) Bioinformatics Analysis: Total reads were adapter trimmed using Cutadapt and quality filtered (Q-Score >30) using the FastQC tool. Trimmed and quality filtered reads were aligned to reference miRNA sequences in miRBase release 21 (www.mirbase.org; Kozomora and Griffiths-Jones. 2014. Nucleid Acids Research, 42, D68-D73) using bowtie2. Subsequently, reads were mapped against the Sus scrofa genome assembly Sscrofa10.2 as well as Ensembl small non-coding RNA reference databases. Reads were normalized to the total read count per library to generate tags per million (TPM) values. […]

[1] = Ctrl vs ZEN high (4.6 mg/kg diet), 28 days in feed
[2] = Ctrl vs ZEN low (0.17 mg/kg diet), 28 days in feed
[3] = ZEN high group (4.6 mg/kg diet) vs Ctrl, 28 days in feed
[4] = both ZEN medium (1.5 mg/kg diet) and ZEN high (4.6 mg/kg diet) group vs Ctrl, 28 days in feed

## C[C@H]1CCCC(=O)CCC/C=C/c2cc(O)cc(O)c2C(=O)O1 [ZEN, (2E,11S)-15,17-dihydroxy-11-methyl-12-oxabicyclo[12.4.0]octadeca-1(18),2,14,16-tetraene-7,13-dione]
miR-7
  expression of miR-7 in pituitary tissue: increase
miRNAs in uterus tissue; [1]
  log2 fold change of hsa-miR-135b-5p in uterus: log2 fold change Ctrl vs ZEN high ≤ −1.5,
  log2 fold change of hsa-miR-301a-5p in uterus: log2 fold change Ctrl vs ZEN high ≤ −1.5,
  log2 fold change of put-miR-300 in uterus: ZEN high ≤ −1.5, TPM > 10
  log2 fold change of ssc-miR-22-3p in uterus: Ctrl vs ZEN high ≥ 1.5; TPM > 10
  log2 fold change of ssc-miR-129a in uterus: log2 fold change Ctrl vs ZEN high < −1.5,
  log2 fold change of ssc-miR-135 in uterus: ZEN high ≤ −1.5, TPM > 10
  log2 fold change of ssc-miR-143-5p in uterus: ZEN high ≥ −1.5, TPM > 10
  log2 fold change of ssc-miR-187 in uterus: Crtrl vs ZEN high ≤ −1.5
  log2 fold change of ssc-miR-204 in uterus: log2 fold change Ctrl vs ZEN high ≤ −1.5,
  log2 fold change of ssc-miR-432-5p in uterus: change Ctrl vs ZEN high ≥ 1.5, specificity
  log2 fold change of ssc-miR-493-3p in uterus: log2 fold change Ctrl vs ZEN high ≥ 1.5,
  log2 fold change of ssc-miR-542-3p in uterus: ZEN high ≥ 1.5, TPM > 10
  log2 fold change of ssc-miR-758 in uterus: change Ctrl vs ZEN high ≥ 1.5
miRNAs in uterus tissue; [2]
  log2 fold change of hsa-miR-135b-5p in uterus: log2 fold change Ctrl vs ZEN low ≤ −0.3,
  log2 fold change of hsa-miR-301a-5p in uterus: log2 fold change Ctrl vs ZEN low ≤ −0.3,
  log2 fold change of ssc-miR-22-3p in uterus: change Ctrl vs ZEN low ≥ 0.3, log2 fold
  log2 fold change of ssc-miR-133a-5p in uterus: change Ctrl vs ZEN low ≥ 0.3, TPM > 10
  log2 fold change of ssc-miR-195 in uterus: change Ctrl vs ZEN low ≥ 0.3, TPM > 10
  log2 fold change of ssc-miR-486 in uterus: change Ctrl vs ZEN low ≥ 0.3, TPM > 10
  log2 fold change of ssc-miR-493-5p in uterus: change Ctrl vs ZEN low ≥ 0.3, TPM > 10,
  log2 fold change of ssc-miR-497 in uterus: change Ctrl vs ZEN low ≥ 0.3, TPM > 10
  log2 fold change of ssc-miR-708-3p in uterus: low ≤ −0.3, TPM > 10
miRNAs in uterus tissue; Ctrl vs ZEN medium (1.5 mg/kg diet), 28 days in feed
  log2 fold change of ssc-miR-187 in uterus: vs ZEN medium ≤ −0.3, log2 fold change
miRNAs in uterus tissue; ZEN high (4.6 mg/kg diet)
  fold change of ssc-miRNA-542-3p in uterus compared to the control group: +12.6
miRNAs in uterus tissue; ZEN high (4.6 mg/kg diet), lowest fold change of the group
  fold change of ssc-miRNA-204 in uterus compared to the control group: −4.1
miRNAs in uterus tissue; [3]
  Response to ZEN treatment in uterus: hsa-miR-135b-5p: Significantly decreased in ZEN high
  Response to ZEN treatment in uterus: hsa-miR-301a-5p: Significantly decreased in ZEN high
  Response to ZEN treatment in uterus: ssc-miR-22-3p: Significantly increased in ZEN high group,
  Response to ZEN treatment in uterus: ssc-miR-22-5p: Significantly increased in ZEN high group,
  Response to ZEN treatment in uterus: ssc-miR-34a: Significantly increased in ZEN high group
  Response to ZEN treatment in uterus: ssc-miR-125a: Significantly decreased in ZEN high
  Response to ZEN treatment in uterus: ssc-miR-125b: Significantly decreased in ZEN high
  Response to ZEN treatment in uterus: ssc-miR-127: Significantly increased in ZEN high group
  Response to ZEN treatment in uterus: ssc-miR-129a: Significantly decreased in ZEN high
  Response to ZEN treatment in uterus: ssc-miR-133a-5p: Significantly increased in ZEN high group,
  Response to ZEN treatment in uterus: ssc-miR-135: Significantly decreased in ZEN high
  Response to ZEN treatment in uterus: ssc-miR-136: Significantly increased in ZEN high group,
  Response to ZEN treatment in uterus: ssc-miR-140-3p: Significantly increased in ZEN high group,
  Response to ZEN treatment in uterus: ssc-miR-142-3p: Significantly increased in ZEN high group,
  Response to ZEN treatment in uterus: ssc-miR-146b: Significantly decreased in ZEN high
  Response to ZEN treatment in uterus: ssc-miR-182: Significantly increased in ZEN high group
  Response to ZEN treatment in uterus: ssc-miR-183: Significantly increased in ZEN high group,
  Response to ZEN treatment in uterus: ssc-miR-195: Significantly increased in ZEN high group,
  Response to ZEN treatment in uterus: ssc-miR-204: Significantly decreased in ZEN high
  Response to ZEN treatment in uterus: ssc-miR-369: Significantly increased in ZEN high group
  Response to ZEN treatment in uterus: ssc-miR-378: Significantly increased in ZEN high group
  Response to ZEN treatment in uterus: ssc-miR-432-5p: Significantly increased in ZEN high group,
  Response to ZEN treatment in uterus: ssc-miR-455-3p: Significantly increased in ZEN high group,
  Response to ZEN treatment in uterus: ssc-miR-455-5p: Significantly increased in ZEN high group,
  Response to ZEN treatment in uterus: ssc-miR-486: Significantly increased in ZEN high group,
  Response to ZEN treatment in uterus: ssc-miR-493-3p: Significantly increased in ZEN high group,
  Response to ZEN treatment in uterus: ssc-miR-493-5p: Significantly increased in ZEN high group,
  Response to ZEN treatment in uterus: ssc-miR-708-3p: Significantly decreased in ZEN high
  Response to ZEN treatment in uterus: ssc-miR-758: Significantly increased in ZEN high group,
miRNAs in uterus tissue; ZEN medium (1.5 mg/kg diet) and high (4.6 mg/kg diet) group vs Ctrl, 28 days in feed
  Response to ZEN treatment in uterus: put-miR-300: Significantly decreased in ZEN medium
miRNAs in uterus tissue; ZEN medium (1.5 mg/kg diet)
  fold change of ssc-miRNA-542-3p in uterus compared to the control group: +3.9
miRNAs in uterus tissue; ZEN medium (1.5 mg/kg diet), lowest fold change of the group
  fold change of ssc-miRNA-187 in uterus compared to the control group: −3.4
miRNAs in uterus tissue; [4]
  Response to ZEN treatment in uterus: ssc-miR-1: Significantly increased in both ZEN
  Response to ZEN treatment in uterus: ssc-miR-143-5p: Significantly increased in both ZEN
  Response to ZEN treatment in uterus: ssc-miR-181c: Significantly decreased in both ZEN
  Response to ZEN treatment in uterus: ssc-miR-187: Significantly decreased in both ZEN
  Response to ZEN treatment in uterus: ssc-miR-206: Significantly increased in both ZEN
  Response to ZEN treatment in uterus: ssc-miR-335: Significantly decreased in both ZEN
  Response to ZEN treatment in uterus: ssc-miR-424-5p: Significantly increased in both ZEN
  Response to ZEN treatment in uterus: ssc-miR-450a: Significantly increased in both ZEN
  Response to ZEN treatment in uterus: ssc-miR-450b-5p: Significantly increased in both ZEN
  Response to ZEN treatment in uterus: ssc-miR-450c-5p: Significantly increased in both ZEN
  Response to ZEN treatment in uterus: ssc-miR-497: Significantly increased in both ZEN
  Response to ZEN treatment in uterus: ssc-miR-503: Significantly increased in both ZEN
  Response to ZEN treatment in uterus: ssc-miR-542-3p: Significantly increased in both ZEN
  Response to ZEN treatment in uterus: ssc-miR-7135-3p: Significantly increased in both ZEN
